Measurements from PubChem BioAssay (NCI).
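Growth conditions: 96-well plates. Treatment: test compound, 48 hours, 5 concentrations. Analysis: linear interpolation between bracketing concentrations; unreached endpoints set to highest concentration. The concentration for full growth arrest is given as TGI.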

Columns and labels:
Assay in all cases: DTP human tumour cell line panel, 48 h
MALME-3M melanoma = test system: MALME-3M melanoma
A498 renal = test system: A498 renal
NCI-H226 lung = test system: NCI-H226 lung
COLO 205 colon = test system: COLO 205 colon
HCT-116 colon = test system: HCT-116 colon
A549 NSCLC = test system: A549 NSCLC
NCI-H522 lung = test system: NCI-H522 lung
NCI-H23 lung = test system: NCI-H23 lung
NCI/ADR-RES ovarian = test system: NCI/ADR-RES ovarian
MDA-N = test system: MDA-N
T-47D breast = test system: T-47D breast
HOP-92 NSCLC = test system: HOP-92 NSCLC

C=C(Br)CNC(=O)CCC(=O)NCC(=C)Br
TGI (MALME-3M melanoma): > 100 µM | TGI (A498 renal): > 100 µM | TGI (NCI-H226 lung): > 100 µM | TGI (COLO 205 colon): > 100 µM | TGI (HCT-116 colon): > 100 µM | TGI (A549 NSCLC): > 100 µM | TGI (NCI-H522 lung): > 100 µM | TGI (NCI-H23 lung): > 100 µM | TGI (NCI/ADR-RES ovarian): > 100 µM | TGI (MDA-N): > 100 µM | TGI (T-47D breast): > 100 µM

Cc1ccc(NC(=O)c2cc(S(=O)(=O)Nc3nc4ncccc4[nH]3)c(SSc3cc(Cl)c(C(=O)Nc4ccc(C)cc4)cc3S(=O)(=O)Nc3nc4ncccc4[nH]3)cc2Cl)cc1
TGI (MALME-3M melanoma): > 100 µM | TGI (A498 renal): > 100 µM | TGI (NCI-H226 lung): > 100 µM | TGI (COLO 205 colon): > 100 µM | TGI (HCT-116 colon): > 100 µM | TGI (A549 NSCLC): > 100 µM | TGI (NCI-H522 lung): > 100 µM | TGI (NCI-H23 lung): > 100 µM | TGI (NCI/ADR-RES ovarian): > 100 µM | TGI (HOP-92 NSCLC): > 100 µM | TGI (MDA-N): > 100 µM | TGI (T-47D breast): > 100 µM

CC(=O)Nc1ccc(C2SCc3nc4ccccc4n32)cc1 (stereo not drawn)
TGI (MALME-3M melanoma): > 86.8 µM | TGI (A498 renal): 28.6 µM | TGI (COLO 205 colon): > 100 µM | TGI (HCT-116 colon): > 100 µM | TGI (A549 NSCLC): > 100 µM | TGI (NCI-H522 lung): > 100 µM | TGI (NCI-H23 lung): > 100 µM | TGI (NCI/ADR-RES ovarian): > 100 µM | TGI (HOP-92 NSCLC): > 100 µM | TGI (MDA-N): > 100 µM | TGI (T-47D breast): > 100 µM

CC(=O)O[C@H]1[C@H](OC(=O)CC(C)(O)CC(=O)O)C[C@]2(C)C3=C(CCC2C1(C)C)[C@]1(C)CC[C@H]([C@H]2CC[C@H](C(C)(C)O)OC2O)[C@@]1(C)[C@@H](O)C3 (stereo partly drawn)
TGI (MALME-3M melanoma): 57.3 µM | TGI (A498 renal): 26.4 µM | TGI (NCI-H226 lung): 53.8 µM | TGI (HCT-116 colon): 44.7 µM | TGI (A549 NSCLC): 98 µM | TGI (NCI-H23 lung): 32.2 µM | TGI (NCI/ADR-RES ovarian): > 100 µM | TGI (HOP-92 NSCLC): 31.1 µM | TGI (MDA-N): 34.3 µM | TGI (T-47D breast): 40.2 µM

Cc1ccnc(NC(NC(=O)c2ccccc2)(C(F)(F)F)C(F)(F)F)c1
TGI (MALME-3M melanoma): > 100 µM | TGI (NCI-H226 lung): > 100 µM | TGI (COLO 205 colon): > 100 µM | TGI (HCT-116 colon): > 100 µM | TGI (A549 NSCLC): > 100 µM | TGI (NCI-H522 lung): > 100 µM | TGI (NCI-H23 lung): > 100 µM | TGI (NCI/ADR-RES ovarian): > 100 µM | TGI (HOP-92 NSCLC): > 100 µM | TGI (MDA-N): > 100 µM | TGI (T-47D breast): > 100 µM

C[C@@H]1CC[C@@H]2[C@@H](C1)O[C@@H]([C@H](C)OCc1ccccc1)SC2(C)C
TGI (MALME-3M melanoma): 53.1 µM | TGI (A498 renal): 39.3 µM | TGI (NCI-H226 lung): 33 µM | TGI (COLO 205 colon): 34 µM | TGI (HCT-116 colon): 29.3 µM | TGI (A549 NSCLC): > 100 µM | TGI (NCI-H522 lung): 40.2 µM | TGI (NCI-H23 lung): > 100 µM | TGI (NCI/ADR-RES ovarian): 75.5 µM | TGI (MDA-N): 65.5 µM | TGI (T-47D breast): 32.9 µM

COCN1C(=O)[C@@H]2CCCN2C(=O)c2cc(N)ccc21
TGI (MALME-3M melanoma): > 100 µM | TGI (A498 renal): > 100 µM | TGI (COLO 205 colon): 8.86 µM | TGI (HCT-116 colon): > 100 µM | TGI (A549 NSCLC): > 100 µM | TGI (NCI-H522 lung): > 100 µM | TGI (NCI-H23 lung): > 100 µM | TGI (NCI/ADR-RES ovarian): > 100 µM | TGI (MDA-N): > 100 µM | TGI (T-47D breast): > 100 µM

Nn1c(Cc2ccc([N+](=O)[O-])cc2)n[nH]c1=O
TGI (MALME-3M melanoma): > 100 µM | TGI (NCI-H226 lung): > 100 µM | TGI (COLO 205 colon): > 100 µM | TGI (HCT-116 colon): > 100 µM | TGI (A549 NSCLC): > 100 µM | TGI (NCI-H522 lung): > 100 µM | TGI (NCI-H23 lung): > 100 µM | TGI (NCI/ADR-RES ovarian): > 100 µM | TGI (HOP-92 NSCLC): > 100 µM | TGI (MDA-N): > 100 µM | TGI (T-47D breast): > 100 µM

BrC(c1cccc2ccccc12)c1cccc2ccccc12
TGI (MALME-3M melanoma): 21.1 µM | TGI (A498 renal): 31.4 µM | TGI (NCI-H226 lung): 33.5 µM | TGI (HCT-116 colon): 27.8 µM | TGI (A549 NSCLC): > 100 µM | TGI (NCI-H522 lung): 32.3 µM | TGI (NCI-H23 lung): 43 µM | TGI (NCI/ADR-RES ovarian): 44.2 µM | TGI (HOP-92 NSCLC): 28.8 µM | TGI (MDA-N): 32.6 µM | TGI (T-47D breast): > 100 µM
